Each structure is given as a SMILES string.

The source of these data is paper PMC4685510, “A Cell Biologist’s Field Guide to Aurora Kinase Inhibitors” (Frontiers in Oncology, 2015).

Data set [1] concerns HeLa, RPE1, and U2OS cells. Nature of the data set: Cellular proliferation analysis (ATPLite, 24 h). Background: In ATP-based viability assays light output follows the ATP content of the culture.
The subject of data set [2] is pLATS2(Ser 83) in HeLa cells. The data set is described as follows: Substrate phosphorylation immunofluorescence assay, pLATS2(Ser 83), HeLa. It counts as cell-based, human. The settings on record: Homo sapiens, HeLa, 8 h, read-out: pLATS2 (Ser83) IC50, HeLa; 8 h inhibitor treatment. The protocol:
We employed the protocol described in Figure 3D to analyze substrate phosphorylation in HeLa cells following treatment with all 10 inhibitors in dose–response. Asynchronous cells were incubated with vehicle (DMSO) or different inhibitor doses for 8 h and then fixed and labeled with a mixture of three antibodies directed against pLATS2(Ser 83), pH3(Ser 28), and MPM2 [which detects mitotic phosphoepitopes; ([86])]. While both the anti-pLATS2(Ser 83) and MPM2 antibodies are mouse monoclonals, they are of different IgG subclasses [IgG2b for anti-pLATS2(Ser 83) and IgG1 for MPM2], and can thus be detected with subclass-specific secondary antibodies (Table S3 in Supplementary Material).
In control mitotic cells, pLATS2(Ser 83) is concentrated in foci around the spindle poles (Figure 3E; top row – green arrow) and pH3(Ser 28) is on the mitotic chromatin (Figure 3E; top row – red arrow). Selective kinase inhibition should result in loss of one signal but not the other, as illustrated by the example images for specific conditions in Figure 3E (middle and bottom rows). Cells were imaged in 4 channels to visualize pLATS2(Ser 83), pH3(Ser 28), MPM2, and DNA (labeled with Hoechst) and mitotic cells were segmented based on their bright MPM2 labeling (Figure 3E). Intensity and area thresholds were set to select the pLATS2(Ser 83) foci and the pH3(Ser 28)-labeled chromatin in their respective channels in DMSO-treated control cells and the same thresholds were applied for inhibitor-treated cells. The mean fluorescence intensity per pixel was measured to assess the activities of the kinases targeting these two substrate phosphorylation sites.
Twelve thousand HeLa cells, 10,000 U2OS cells, or 8,000 RPE1 cells were seeded into 96-well glass-bottom Sensoplates (Greiner) 16 h before inhibitor addition. Prior to seeding, the glass-bottom plates were coated with poly-L-lysine (Sigma). […] After 8 h cells were fixed with 4% PFA for 20 min at room temperature. The fixed cells were washed with PBS. For immunostaining, cells were permeabilized and blocked with PBS containing 10% normal donkey serum (Jackson ImmunoResearch) and 0.1% Triton-X100 for 1 h at room temperature. Primary antibodies against phospho-LATS2 (Ser 83), phospho-histone H3(Ser 28), and anti-phospho-MPM2 (see Table S3 in Supplementary Material) were incubated for 1 h at room temperature. […] Cells were then washed twice with PBS containing 0.1% Triton-X100. Image acquisition in four channels was performed using a CV7000 spinning disk confocal system (Yokogawa Electric Corporation) with a 40 × 0.95 NA U-PlanApo objective and 2560 × 2160 pixel sCMOS camera. […] Fifty fields per well were imaged with quadruplicate wells for each condition. Image analysis was done using the CV7000 image analysis software (Yokogawa Electric Corporation). Between 100 and 1,000 mitotic cells per condition were segmented applying object identification parameters to select for bright MPM2 labeling. Using a nuclear identifier protocol, minimum intensity thresholds were set for pLATS2(Ser 83) and the pH3(Ser 28) signals, and the resulting identified objects were eroded, dilated, and filtered for size by user-defined thresholds. For only the MPM2-positive mitotic cells, the mean fluorescence intensity of the identified pLATS2(Ser 83) and pH3(Ser 28) objects was measured, and the average intensity per cell per well was calculated. The same thresholds were applied for all of the inhibitor-treated samples, which were processed, imaged, and analyzed in parallel with control DMSO-treated cells. Data were fit using a four-parameter, variable slope fit in Prism (GraphPad). Primary and secondary antibody dilutions can be found in Table S3 in Supplementary Material.

Data set [3] has as its target T1, Aurora A/TPX2^1–43 (Homo sapiens, UniProt O14965).
T1 sequence (O14965 1-403): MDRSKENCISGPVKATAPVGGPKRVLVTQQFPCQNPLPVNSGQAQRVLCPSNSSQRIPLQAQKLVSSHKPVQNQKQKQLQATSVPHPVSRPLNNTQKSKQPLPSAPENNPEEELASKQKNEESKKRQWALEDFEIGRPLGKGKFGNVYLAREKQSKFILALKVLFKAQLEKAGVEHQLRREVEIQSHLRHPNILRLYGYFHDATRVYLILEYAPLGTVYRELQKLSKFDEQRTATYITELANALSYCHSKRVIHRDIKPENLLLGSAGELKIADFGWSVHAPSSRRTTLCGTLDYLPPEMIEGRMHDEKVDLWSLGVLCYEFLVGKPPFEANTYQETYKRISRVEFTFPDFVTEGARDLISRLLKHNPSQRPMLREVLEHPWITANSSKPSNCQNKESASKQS
T1 sequence (Q9ULW0 1-43 partner limits assumed): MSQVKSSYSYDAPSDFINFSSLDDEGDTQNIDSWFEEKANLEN
The data set is described as follows: Aurora A/TPX2^1–43 kinase assay (ADP-Glo).

For data set [4], the system named is Aurora A. To be noted: ref 59; read-out: Aurora A IC50 (Published); cited from earlier work.
Data set [5] deals with T2, Aurora B/INCENP^783–918 (Homo sapiens, UniProt Q96GD4).
T2 construct: purchased SignalChem
T2 sequence (Q96GD4 whole entry): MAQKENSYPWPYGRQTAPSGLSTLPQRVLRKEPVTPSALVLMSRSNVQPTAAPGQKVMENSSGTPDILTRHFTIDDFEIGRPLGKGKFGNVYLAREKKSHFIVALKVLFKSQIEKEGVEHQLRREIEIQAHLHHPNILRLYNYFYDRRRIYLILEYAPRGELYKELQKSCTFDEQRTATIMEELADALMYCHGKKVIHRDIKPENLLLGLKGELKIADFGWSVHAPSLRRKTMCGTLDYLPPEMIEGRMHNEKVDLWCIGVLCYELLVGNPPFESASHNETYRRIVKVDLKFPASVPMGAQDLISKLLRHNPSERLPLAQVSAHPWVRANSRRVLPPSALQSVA
T2 sequence (Q9NQS7 783-918 partner limits assumed): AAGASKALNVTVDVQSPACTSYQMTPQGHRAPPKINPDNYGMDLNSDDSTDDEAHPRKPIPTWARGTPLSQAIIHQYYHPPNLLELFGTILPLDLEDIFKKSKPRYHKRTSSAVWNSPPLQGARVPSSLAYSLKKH
The data set is described as follows: Aurora B/INCENP^783–918 kinase assay (ADP-Glo). It counts as biochemical. For orientation: ADP-Glo turns the ADP formed in a reaction into a luminescent signal.

The subject of data set [6] is Aurora B. To be noted: ref 59; read-out: Aurora B IC50 (Published); cited from earlier work.
In data set [7] the target is T3, full-length human Aurora A (Homo sapiens, UniProt O14965).
T3 sequence (O14965 1-403): T1 sequence (O14965 1-403)
The data set is described as follows: Aurora A kinase assay (ADP-Glo, Kemptide substrate).

Data set [8] relates to pH3(Ser 28) in HeLa cells. Nature of the data set: Substrate phosphorylation immunofluorescence assay, pH3(Ser 28), HeLa. Format: cell-based, human. To be noted: 8 h inhibitor treatment.
Protocol: After 8 h cells were fixed with 4% PFA for 20 min at room temperature. The fixed cells were washed with PBS. For immunostaining, cells were permeabilized and blocked with PBS containing 10% normal donkey serum (Jackson ImmunoResearch) and 0.1% Triton-X100 for 1 h at room temperature. Primary antibodies against phospho-LATS2 (Ser 83), phospho-histone H3(Ser 28), and anti-phospho-MPM2 (see Table S3 in Supplementary Material) were incubated for 1 h at room temperature. […] Cells were then washed twice with PBS containing 0.1% Triton-X100. […] Fifty fields per well were imaged with quadruplicate wells for each condition. Image analysis was done using the CV7000 image analysis software (Yokogawa Electric Corporation). Between 100 and 1,000 mitotic cells per condition were segmented applying object identification parameters to select for bright MPM2 labeling. Using a nuclear identifier protocol, minimum intensity thresholds were set for pLATS2(Ser 83) and the pH3(Ser 28) signals, and the resulting identified objects were eroded, dilated, and filtered for size by user-defined thresholds. […] The same thresholds were applied for all of the inhibitor-treated samples, which were processed, imaged, and analyzed in parallel with control DMSO-treated cells. Data were fit using a four-parameter, variable slope fit in Prism (GraphPad).
Data set [9] concerns HeLa cells. Nature of the data set: Live cell-activated caspase 3/7 assay. It counts as cell-based, human. To be noted: within 24 h of treatment. As to the method:
HeLa cells (6,000/well) were seeded in 96-well μCLEAR plates (Greiner) in 100 μL DMEM plus serum, and incubated for 16 h at 37°C and 5% CO2. […] After 24 h 2 μM CellEvent Caspase-3/7 Green Reagent (Life Technologies), and NucBlue Live ReadyProbes Reagent (Hoechst 33342; Life Technologies) were added. Cells were imaged after 60 min on a CV7000 spinning disk confocal system (Yokogawa Electric Corporation) with a 20 × 0.75 NA U-PlanApo objective and 2560 × 2160 sCMOS camera with 2 × 2 binning. The imaging chamber was maintained at 37°C and 5% CO2. Six to eight fields/well were imaged, with duplicate wells for each condition. 3 μm × 2 μm z-sections in the blue (40% power, 300 ms, 35% gain) and green (40% power, 300 ms, 35% gain) channels were captured in each field. The apoptotic fraction was calculated by dividing the number of cells fluorescing at 530 nm (corresponding to the cleaved caspase reporter reagent) by the number of nuclei (Hoechst staining). Image analysis was done using the CV7000 image analysis software (Yokogawa Electric Corporation).

Setting [10] is: fold difference in potency calculated by dividing Ki values.

As to `CCN1CCN(C(=O)Cc2ccc(Nc3ncc(F)c(Nc4ccc(C(=O)Nc5ccccc5Cl)cc4)n3)cc2)CC1` [Genentech Aurora Inhibitor 1], the “Toxicity / cytotoxicity (cellular proliferation)” value in data set [1] (HeLa, RPE1, U2OS, 24 h (Figure 4D, Figure S2B)) is “cytotoxic”. Besides, the Effect on proliferation result in [1] (HeLa, within 24 h of treatment) is reported as “significantly reduced proliferation”. In [1] (U2OS and RPE1 cells, 24 h), the “Toxicity (reduced proliferation)” value is given as “toxicity”. The IC50 (as a rule, the point on the concentration scale where inhibition reaches its midpoint) in data set [2] was 490 nM; in data set [4], 3.4 nM; in data set [6] it was 3400 nM. In addition, the Ki – broadly, a measure of affinity in units of concentration, obtained from inhibition or displacement – in data set [3] is 0.24 ± 0.02 nM; in [5], 156 ± 33.7 nM; in [7] (Aurora A Ki Mean ± SD, [ATP] = Km(ATP) (35 μM), Ki calculated from IC50 with tight-binding equation) it was 0.57 ± 0.06 nM. Further, in data set [3] (Aurora A Ki versus Aurora A/TPX2^1–43 Ki), the “Increase of affinity for Aurora A by TPX2^1–43” value came out at 2.5 fold. In [3] (setting [10]), the “Selectivity ratio Aur A-TPX2^1–43 versus Aur B-INCENP^783–918” value is on record as 654 fold. Also, the “Selectivity ratio Aur A versus Aur A-TPX2^1–43” value in data set [7] (setting [10]) is 0.4 fold. In addition, in data set [7] (setting [10]), the “Selectivity ratio Aur A versus Aur B-INCENP^783–918” value is recorded as 274 fold. For the same compound, the “pHistone H3 (Ser28) IC50” value in data set [8] was “NE@9 μM”; in data set [8] (listed as Genentech Aurora Inh 1) it was “NE (9 μM)”. The Apoptosis entry in [9] is given as “apoptotic cell death”.
